Tests used:
Format in all cases: cell-based
M1 muscarinic receptor = biological target: T1, M1 muscarinic receptor (Homo sapiens, UniProt P11229); test: Functional mobilization of intracellular calcium (FLIPR), M1-CHO cells; settings: for EC50: CHO cells expressing M1, calcium mobilization
T1 construct: expressed in transfected cells; host or cells: CHO (M1-CHO)
T1 sequence (P11229 1-460): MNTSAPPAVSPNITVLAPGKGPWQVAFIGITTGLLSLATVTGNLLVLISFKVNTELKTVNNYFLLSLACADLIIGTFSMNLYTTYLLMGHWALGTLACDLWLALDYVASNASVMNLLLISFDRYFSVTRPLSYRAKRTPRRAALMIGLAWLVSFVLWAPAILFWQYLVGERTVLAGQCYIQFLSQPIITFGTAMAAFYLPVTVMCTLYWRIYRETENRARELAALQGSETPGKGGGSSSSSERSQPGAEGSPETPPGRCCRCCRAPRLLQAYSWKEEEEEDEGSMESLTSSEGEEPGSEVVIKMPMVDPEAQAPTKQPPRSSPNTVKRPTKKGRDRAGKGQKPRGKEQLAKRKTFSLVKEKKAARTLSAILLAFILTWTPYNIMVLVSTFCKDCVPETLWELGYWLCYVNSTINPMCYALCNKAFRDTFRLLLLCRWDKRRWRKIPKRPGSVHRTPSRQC
Method: (§1) Functional Mobilization of Intracellular Calcium to Determine Muscarinic Receptor Activity:
(§2) CHO cells expressing muscarinic receptors (M1 to M5) are grown as monolayers in tissue culture flasks at 37° C. in a humidified atmosphere containing 5% CO2 and passaged every 3-5 days. The growth media is Dulbecco's modified eagles medium (DMEM, Gibco Cat# 12430-054), containing 25 mM Hepes and supplemented with Fetal Bovine Serum (Hyclone, cat #SH30071.03), 0.1 mM of MEM non-essential amino acids (GIBCO, Cat #11140-050), 1 mM MEM Sodium Pyruvate (GIBCO Cat #11360-070) and 100 units/ml of Penicillin G and 100 μg/ml of Streptomycin (GIBCO Cat #15140-122). The recombinant muscarinic receptor cell lines are grown under antibiotic pressure with media containing 25 μg/ml zeocin and 500 μg/ml G418 (M1-CHO), 4 μg/ml puromycin, 50 μg/ml zeocin and 2.5 μg/ml blasticidin (M2 and M4-CHO) or 50 μg/ml zeocin and 4 μg/ml puromycin (M3 and M5-CHO).
(§3) Cells are harvested at 80-90% confluence using Versene (GIBCO Cat #15040-066), collected by centrifugation and seeded 18-24 hrs prior to running the calcium assay at a density of 5,000-10,000 cells/well in […], clear-bottomed 384-well plates (BD Biocoat, poly-D-lysine, Cat#356663). The day of the experiment, the cells are washed with a plate washer (Bioteck Instruments, ELX 405) using bath1 buffer (140-mM NaCl, 4.5-mM KCl, 2-mM CaCl2, 1-mM MgCl2, 10-mM Hepes-Na, 10-mM Glucose, pH 7.4, with NaOH) containing 1 mM Probenecid. Next, the calcium dye Fluo-3 (25 μl/well of Fluo-3 AM at 4 μM, Molecular Probes F-1241, in Bath 1 buffer containing 1 mM Probenecid) is added to the 25 μl of Bath 1 remaining in each well after the plate wash and the dye is loaded at 37° C. in the tissue culture incubator for 60-90 min. The fluorescent dye is removed using the plate washer with Bath 1 containing 1 mM Probenecid, leaving 25 μl/well of this solution after the wash. Alternatively, cells can be loaded with the calcium indicator from Molecular Devices (Calcium 3 Assay Reagents, Cat #R7181) adding 5 μl of a 5× solution dye in Bath 1 containing 1 mM Probenecid (10 ml per dye flask cat #R7182 to generate a solution 20×) to 20 μl of the same buffer. After loading for 60 min, the experiment can be run without having to remove the dye.
(§4) Compounds are prepared at a 2× fold concentration in a 96-well plate (round bottom, Costar Corning cat #3656), by reconstituting the pre-spotted compounds in bath 1 containing 1 mM probenecid. The final concentration DMSO is 0.5%, and the amount of DMSO is normalized across the assay plate. To determine an agonist action of the compounds on muscarinic receptors, the reconstituted compounds are added (25 μl compound/well) to the cell assay plate (containing 25 μl/well) using the multi-channel robotic system of the FLIPR 3 Instrument (Molecular Devices, Sunnyvale, Calif.). To determine a functional inhibitory action of the compounds on muscarinic receptors, the reconstituted compounds are added (25 μl compound/well) to the assay plate and pre-incubated for 15 min prior to adding 25 μl of Carbachol at 3× the EC80 for each muscarinic subtype. Alternatively, the compounds can be co-applied simultaneously with the agonist. In both assay modes, the fluorescence is recorded for 60 sec (excitation wavelength is […] and emission wavelength 540 nm) using the FLIPR 3 instrument.
(§5) The potency, efficacy and selectivity of the muscarinic compounds were evaluated by screening the compound activity across the whole family (M1 to M5 cells). Compounds were also screened for activity on other proteins such as other GPCRs and ion channels to determine selectivity on M4 receptors.
(§6) Examples of activities and efficacies of the muscarinic compounds of formulae (I, Ia, and Ib) on modulating M1 and M4 receptors are shown below in Table 3. […]

M4 muscarinic receptor = biological target: T2, M4 muscarinic receptor (Homo sapiens, UniProt P08173); test: Functional mobilization of intracellular calcium (FLIPR), M4-CHO cells; settings: for EC50: CHO cells expressing M4, calcium mobilization
T2 construct: expressed in transfected cells; host or cells: CHO (M4-CHO)
T2 sequence (P08173 1-479): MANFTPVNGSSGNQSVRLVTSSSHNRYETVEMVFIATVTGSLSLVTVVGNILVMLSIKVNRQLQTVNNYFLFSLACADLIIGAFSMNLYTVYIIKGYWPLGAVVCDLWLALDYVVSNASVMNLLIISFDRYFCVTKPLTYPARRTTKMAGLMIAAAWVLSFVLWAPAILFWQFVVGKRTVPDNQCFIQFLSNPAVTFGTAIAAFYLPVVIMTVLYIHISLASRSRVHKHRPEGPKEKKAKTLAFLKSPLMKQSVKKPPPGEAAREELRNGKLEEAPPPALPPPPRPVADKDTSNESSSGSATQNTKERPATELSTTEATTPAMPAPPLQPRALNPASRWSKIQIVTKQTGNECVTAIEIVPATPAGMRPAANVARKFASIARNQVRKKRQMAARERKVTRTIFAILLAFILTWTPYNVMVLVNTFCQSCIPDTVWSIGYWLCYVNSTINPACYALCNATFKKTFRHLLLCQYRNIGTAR
Method: as §1, §2, §3, §4, §5, §6

M2 muscarinic receptor = biological target: T3, M2 muscarinic receptor (Homo sapiens, UniProt P08172); test: Functional mobilization of intracellular calcium (FLIPR), M2-CHO cells; settings: for EC50: CHO cells expressing M2, calcium mobilization
T3 construct: expressed in transfected cells; host or cells: CHO (M2-CHO)
T3 sequence (P08172 1-466): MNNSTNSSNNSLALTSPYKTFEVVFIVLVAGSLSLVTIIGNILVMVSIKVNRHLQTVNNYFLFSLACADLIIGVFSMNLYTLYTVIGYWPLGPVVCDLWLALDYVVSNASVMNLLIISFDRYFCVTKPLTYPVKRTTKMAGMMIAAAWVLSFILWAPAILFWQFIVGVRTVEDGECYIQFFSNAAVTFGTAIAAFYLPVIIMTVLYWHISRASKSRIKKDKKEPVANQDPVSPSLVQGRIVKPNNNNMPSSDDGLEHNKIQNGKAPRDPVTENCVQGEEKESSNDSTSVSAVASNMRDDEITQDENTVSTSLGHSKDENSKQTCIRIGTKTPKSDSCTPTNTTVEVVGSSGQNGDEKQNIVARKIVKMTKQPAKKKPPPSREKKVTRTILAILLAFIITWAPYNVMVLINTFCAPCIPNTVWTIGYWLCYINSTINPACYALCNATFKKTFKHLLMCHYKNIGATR
Method: as §1, §2, §3, §4, §5, §6

M3 muscarinic receptor = biological target: T4, M3 muscarinic receptor (Homo sapiens, UniProt P20309); test: Functional mobilization of intracellular calcium (FLIPR), M3-CHO cells; settings: for EC50: CHO cells expressing M3, calcium mobilization
T4 construct: expressed in transfected cells; host or cells: CHO (M3-CHO)
T4 sequence (P20309 whole entry): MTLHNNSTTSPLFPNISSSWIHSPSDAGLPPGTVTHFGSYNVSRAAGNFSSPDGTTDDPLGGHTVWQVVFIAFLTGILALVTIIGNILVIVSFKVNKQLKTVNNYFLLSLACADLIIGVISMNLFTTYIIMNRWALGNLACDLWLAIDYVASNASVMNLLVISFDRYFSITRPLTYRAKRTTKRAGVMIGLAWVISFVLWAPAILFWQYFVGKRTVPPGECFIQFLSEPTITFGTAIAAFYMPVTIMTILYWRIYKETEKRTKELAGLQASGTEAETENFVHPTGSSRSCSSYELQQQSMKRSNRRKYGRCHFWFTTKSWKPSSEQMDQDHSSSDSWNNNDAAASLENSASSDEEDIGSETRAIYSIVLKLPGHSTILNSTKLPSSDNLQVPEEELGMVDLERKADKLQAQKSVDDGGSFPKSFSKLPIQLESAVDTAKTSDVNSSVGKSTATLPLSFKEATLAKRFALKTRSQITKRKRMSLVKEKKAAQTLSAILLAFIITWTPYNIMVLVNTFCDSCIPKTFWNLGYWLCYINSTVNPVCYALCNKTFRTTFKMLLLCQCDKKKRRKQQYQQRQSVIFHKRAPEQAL
Method: as §1, §2, §3, §4, §5, §6

[1] = 100% efficacy = maximum response obtained with the Carbachol control

| SMILES | M1 Efficacy (M1 muscarinic receptor; [1]) | EC50 (M1 muscarinic receptor) [µM] | M4 Efficacy (M4 muscarinic receptor; [1]) | EC50 (M4 muscarinic receptor) [µM] | M2 Efficacy (M2 muscarinic receptor; [1]) | EC50 (M2 muscarinic receptor) [µM] | M3 Efficacy (M3 muscarinic receptor; [1]) | EC50 (M3 muscarinic receptor) [µM] | Emax (M1 muscarinic receptor; [1]) [%] | Emax (M4 muscarinic receptor; [1]) [%] | Emax (M2 muscarinic receptor; [1]) [%] | Emax (M3 muscarinic receptor; [1]) [%] |
| --- | --- | --- | --- | --- | --- | --- | --- | --- | --- | --- | --- | --- |
| CN1C(=O)C[C@@H]2CC3(CCN(C4CCCCC4)CC3)c3ccccc3[C@@H]21 [Compound 24] | ++ (efficacy was calculated to be from 100% to 25%) | > 5 | ++ (efficacy was calculated to be from 100% to 25%) | < 2 | + (efficacy was calculated to be less than 25%) | > 5 | + (efficacy was calculated to be less than 25%) | > 5 |  |  |  |  |
| COCCN1C(=O)C[C@@H]2CC3(CCN(CC4CCCCC4)CC3)c3ccccc3[C@@H]21 [Compound 22] |  | 2 to 5 |  | < 2 |  | > 5 |  | > 5 | 25 to 100 | 25 to 100 | < 25 | < 25 |

From patent publication US7973162B2, “Modulators of muscarinic receptors” (Vertex Pharmaceuticals Incorporated, priority 2007, dated 2011)
